This is an account of results in patent US20250188059A1, “NOVEL COMPOUND AND USE THEREOF FOR INHIBITING CHECKPOINT KINASE 2” (ARUM THERAPEUTICS INC, priority 2022, published 2025).

Each structure is given as a SMILES string. Like-named read-outs stand apart in the source and are kept apart here.

One assay deals with Chk1 kinase (Homo sapiens (Human), UniProt O14757). In words: Chk1 kinase inhibitory activity (LanthaScreen TR-FRET). The settings on record: graded. Format: biochemical. How it is done:
(§1) The compounds of Examples 1 to 66 were diluted at various concentrations and transferred to a 384-well plate by 5 μl, and 10 μl of a mixed solution (2×) of Chk1 kinase (Thermo, P3040) or Chk2 kinase (Thermo, PV3367) and a substrate (Thermo, PV3508) was added to wells treated with the compounds. 5 μl of an ATP solution at a 4× concentration was added to the test well and reacted at room temperature for 1 hour. 20 μl of LanthaScreen Terbium-CREB p-Ser 133 antibody (Thermo, PV3542) was added to the reaction well and incubated at room temperature for 30 minutes. Conversion data was measured by an EnVision 2014 multi label reader (PerkinElmer). The activity for each concentration was determined by the ratio (FRET ratio=FR) of the value obtained by dividing the value at 520 nm by the value at 490 nm among the emission wavelength values for each wavelength (Em520/Em490). The results obtained for each concentration of the compounds were the average values obtained in two wells, and the IC50 values of the compounds were calculated using PRIZM software for analysis of the results. IC50 in Table 7 was graded as follows.
In general terms: Time-resolved FRET reads energy transfer from a long-lived donor to a nearby acceptor.

The next assay addresses Chk2 kinase (Homo sapiens (Human), UniProt O96017). In words: Chk2 kinase inhibitory activity (LanthaScreen TR-FRET). It is filed as biochemical. The settings on record: graded. The method, then:
as §1

The subject of assay [1] is human breast cancer cell line MCF-7. In words: Cancer cell growth inhibition test (CellTiter-Glo). Format: cell-based. The following applies: MCF-7, 72 hours. How it is done:
The human breast cancer cell line MCF-7 was treated with trypsin and harvested. The number of cells was counted, and about 3000 cells/80 μl per well were inoculated into a 96 well plate (Corning) and then incubated in a 37° C. incubator for 24 hours. Thereafter, the example compounds were diluted in a culture solution at various concentrations, and each well was treated with 20 μl and stored in a cell culture incubator for 72 hours. In the case of the group administered in combination, the example compounds and cisplatin or doxorubicin were diluted in a culture solution at various concentrations, and each well was treated with 20 μl. After 72 hours, each well was treated with 30 μl of CellTiter-Glo solution (Promega), and the luminescence was read on a Victor3 multi label reader (PerkinElmer).
Relative viability (%)=(value of each test well/value of well treated with DMSO alone)×100
The results obtained for each concentration for each example compound were the average values obtained from three wells, and PRIZM software was used for analysis of the results.
In general terms: Cellular ATP, detected with luciferase, serves as a proxy for viable cell number.

Where [2] appears, read: Homo sapiens, MCF7, 72 h, graded, read-out: Celltiter glo analysis (IC50).
Where [3] appears, read: graded, read-out: Celltiter glo analysis (IC50).

Chk1 kinase, sequence (O14757 whole entry): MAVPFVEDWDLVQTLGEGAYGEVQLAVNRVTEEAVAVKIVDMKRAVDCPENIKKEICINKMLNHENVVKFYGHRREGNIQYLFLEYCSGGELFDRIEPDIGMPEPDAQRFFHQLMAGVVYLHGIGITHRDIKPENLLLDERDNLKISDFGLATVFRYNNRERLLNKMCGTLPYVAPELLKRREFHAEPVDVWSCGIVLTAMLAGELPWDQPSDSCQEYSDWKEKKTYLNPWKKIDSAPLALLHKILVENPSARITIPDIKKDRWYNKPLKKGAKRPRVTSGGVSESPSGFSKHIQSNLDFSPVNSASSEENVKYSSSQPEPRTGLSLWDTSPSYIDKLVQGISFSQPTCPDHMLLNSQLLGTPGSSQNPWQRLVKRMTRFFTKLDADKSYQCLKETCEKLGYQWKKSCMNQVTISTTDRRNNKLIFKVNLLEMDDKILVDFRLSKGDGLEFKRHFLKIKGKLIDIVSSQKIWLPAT
Chk2 kinase, sequence (O96017 whole entry): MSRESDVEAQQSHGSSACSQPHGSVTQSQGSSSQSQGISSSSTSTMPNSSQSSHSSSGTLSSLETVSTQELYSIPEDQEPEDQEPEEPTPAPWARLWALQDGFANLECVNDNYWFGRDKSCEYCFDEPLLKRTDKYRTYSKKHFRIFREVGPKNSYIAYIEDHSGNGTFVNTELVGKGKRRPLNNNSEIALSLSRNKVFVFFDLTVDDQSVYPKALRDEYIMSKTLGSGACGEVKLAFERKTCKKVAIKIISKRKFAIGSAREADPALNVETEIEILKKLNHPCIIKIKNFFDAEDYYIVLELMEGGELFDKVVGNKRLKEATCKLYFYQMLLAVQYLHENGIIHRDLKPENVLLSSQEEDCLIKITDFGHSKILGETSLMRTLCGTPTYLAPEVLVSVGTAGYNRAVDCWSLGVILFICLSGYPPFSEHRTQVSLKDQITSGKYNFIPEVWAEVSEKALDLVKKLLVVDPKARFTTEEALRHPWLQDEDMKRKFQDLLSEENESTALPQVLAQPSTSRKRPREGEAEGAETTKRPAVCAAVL

A word on the IC50: it is the point on the concentration scale where inhibition reaches its midpoint. Take `N#CCn1cc(-c2cccc(-c3cnc(N)c(C(=O)N[C@H]4CCCNC4)n3)c2)cn1` [Example 27, (S)-3-amino-6-(3-(1-(cyanomethyl)-1H-pyrazol-4-yl)phenyl)-N-(piperidin-3-yl)pyrazine-2-carboxamide]: the IC50 is 10 to 100 nM against Chk1 kinase, 10 to 100 nM against Chk2 kinase and greater than 100000 nM in assay [1] (setting [2]).
For the molecule `Nc1ncc(-c2ccnc(-c3cnn(C4CC4)c3)c2)nc1C(=O)N[C@H]1CCCNC1` [Example 20, (S)-3-amino-6-(2-(1-cyclopropyl-1H-pyrazol-4-yl)pyridin-4-yl)-N-(piperidin-3-yl)pyrazine-2-carboxamide], the half-maximal inhibitory concentration (IC50) against Chk1 kinase lay in the range of 10 to 100 nM; against Chk2 kinase, 10 to 100 nM; in assay [1] (setting [2]) it was 10000 to 100000 nM.
`Cc1ccc(-c2cnn(CC(C)(C)O)c2)cc1-c1cnc(N)c(C(=O)N[C@@H]2CNC[C@@H](F)C2)n1` [Example 37, 3-amino-N-((3S,5S)-5-fluoropiperidin-3-yl)-6-(5-(1-(2-hydroxy-2-methylpropyl)-1H-pyrazol-4-yl)-2-methylphenyl) pyrazine-2-carboxamide]: the values for the IC50 (at Chk1 kinase; against Chk2 kinase; in assay [1] (setting [2])) were greater than 1000 nM, 10 to 100 nM and greater than 100000 nM, respectively.
`Nc1ncc(-c2cc(-c3cnn(C4CC4)c3)ccc2F)nc1C(=O)N[C@H]1CCCNC1` [Example 31, (S)-3-amino-6-(5-(1-cyclopropyl-1H-pyrazol-4-yl)-2-fluorophenyl)-N-(piperidin-3-yl)pyrazine-2-carboxamide]: the values for the concentration for half-maximal inhibition (IC50) (against Chk1 kinase; on Chk2 kinase; in assay [1] (setting [2])) were 100 to 1000 nM, 10 to 100 nM and 10000 to 100000 nM, respectively.
For the molecule `CC1(C)Cc2c(-c3cccc(-c4cnc(N)c(C(=O)N[C@@H]5CNCC(F)(F)C5)n4)c3)cnn2C1` [Example 59], the IC50 was greater than 1000 nM at Chk1 kinase, 10 to 100 nM against Chk2 kinase and no more than 10000 nM in assay [1] (setting [2]).
For the molecule `CC(C)(O)Cn1cc(-c2ccc(F)c(-c3cnc(N)c(C(=O)N[C@@H]4CNC[C@@H](F)C4)n3)c2)cn1` [Example 35, 3-amino-6-(2-fluoro-5-(1-(2-hydroxy-2-methylpropyl)-1H-pyrazol-4-yl)phenyl)-N-((3S,5S)-5-fluoropiperidin-3-yl)pyrazine-2-carboxamide], the half-maximal inhibitory concentration (IC50) against Chk1 kinase is greater than 1000 nM; against Chk2 kinase it was 10 to 100 nM; in assay [1] (setting [2]), 10000 to 100000 nM.
As for `Nc1ncc(-c2cc(-c3cnn(CC(F)(F)F)c3)ncc2F)nc1C(=O)N[C@@H]1CNC[C@@H](F)C1` [Example 2, 3-amino-6-(5-fluoro-2-(1-(2,2,2-trifluoroethyl)-1H-pyrazol-4-yl)pyridin-4-yl)-N-((3S,5S)-5-fluoropiperidin-3-yl)pyrazine-2-carboxamide], the figures for the 50% inhibitory concentration (IC50) (against Chk1 kinase; against Chk2 kinase; in assay [1] (setting [2])) were 100 to 1000 nM, 10 to 100 nM and 10000 to 100000 nM, respectively.
In the case of `CC1(C)Cc2c(-c3nccc(-c4cnc(N)c(C(=O)NC5CNC[C@@H](F)C5)n4)n3)cnn2C1` (stereo partly drawn) [Example 64, 3-amino-6-(2-(5,5-dimethyl-5,6-dihydro-4H-pyrrolo[1,2-b]pyrazol-3-yl)pyrimidin-4-yl)-N-((3S,5S)-5-fluoropiperidin-3-y)pyrazine-2-carboxamide], the 50% inhibitory concentration (IC50) is greater than 1000 nM against Chk1 kinase, no more than 10 nM on Chk2 kinase and 10000 to 100000 nM in assay [1] (setting [2]).
For the molecule `CC(C)(O)Cn1cc(-c2cc(-c3cnc(N)c(C(=O)N[C@@H]4CNCC(F)(F)C4)n3)ccn2)cn1` [Example 33, (S)-3-amino-N-(5,5-difluoropiperidin-3-yl)-6-(2-(1-(2-hydroxy-2-methylpropyl)-1H-pyrazol-4-yl)pyridin-4-yl)pyrazine-2-carboxamide], the results for the 50% inhibitory concentration (IC50) (against Chk1 kinase; at Chk2 kinase; in assay [1] (setting [2])) were greater than 1000 nM, 100 to 1000 nM and 10000 to 100000 nM, respectively.
With `Cn1cc(-c2ccc(F)c(-c3cnc(N)c(C(=O)N[C@@H]4CNC[C@@H](F)C4)n3)c2)cn1` [Example 19, 3-amino-6-(2-fluoro-5-(1-methyl-1H-pyrazol-4-yl)phenyl)-N-((3S,5S)-5-fluoropiperidin-3-yl) pyrazine-2-carboxamide], the IC50 is 100 to 1000 nM on Chk1 kinase, 10 to 100 nM against Chk2 kinase and 10000 to 100000 nM in assay [1] (setting [2]).
In the case of `CC1(C)Cc2c(-c3cccc(-c4cnc(N)c(C(=O)N[C@H]5CCC6(CC6)NC5)n4)c3)cnn2C1` [Example 51, (S)-3-amino-6-(3-(5,5-dimethyl-5,6-dihydro-4H-pyrrolo[1,2-b]pyrazol-3-yl)phenyl)-N-(4-azaspiro[2.5]octan-6-yl)pyrazine-2-carboxamide], the IC50 on Chk2 kinase was no more than 10 nM; in assay [1] (setting [3]), 10000 to 100000 nM.
On to `CC1(C)Cc2c(-c3cccc(-c4cnc(N)c(C(=O)N[C@@H]5CNCCC5(F)F)n4)c3)cnn2C1` [Example 58, 3-amino-N-(4,4-difluoropiperidin-3-y)-6-(3-(5,5-dimethyl-5,6-dihydro-4H-pyrrolo[1,2-b]pyrazol-3-yl)phenyl)pyrazine-2-carboxamide], for which the IC50 was no more than 10 nM against Chk2 kinase and 10000 to 100000 nM in assay [1] (setting [2]).
Turning to `Nc1ncc(-c2cc(-c3cnn(CC(F)(F)F)c3)ccc2F)nc1C(=O)N[C@@H]1CNCC(F)(F)C1` [Example 12, (S)-3-amino-N-(5,5-difluoropiperidin-3-yl)-6-(2-fluoro-5-(1-(2,2,2-trifluoroethyl)-1H-pyrazol-4-yl)phenyl)pyrazine-2-carboxamide], the half-maximal inhibitory concentration (IC50) against Chk2 kinase was greater than 1000 nM; in assay [1] (setting [2]), no more than 10000 nM.
Regarding `CC(C)(O)Cn1cc(-c2cc(-c3cnc(N)c(C(=O)N[C@@H]4CNC[C@@H](F)C4)n3)c(F)cn2)cn1` [Example 22, 3-amino-6-(5-fluoro-2-(1-(2-hydroxy-2-methylpropyl)-1H-pyrazol-4-yl)pyridin-4-yl)-N-((3S,5S)-5-fluoropiperidin-3-yl)pyrazine-2-carboxamide], the 50% inhibitory concentration (IC50) against Chk2 kinase is greater than 1000 nM; in assay [1] (setting [2]), 10000 to 100000 nM.
As to `CC(C)(O)Cn1cc(-c2cc(-c3cnc(N)c(C(=O)NC4CNC[C@@H](F)C4)n3)ccn2)cn1` (stereo partly drawn) [Example 6, 3-amino-N-((3S,5S)-5-fluoropiperidin-3-yl)-6-(2-(1-(2-hydroxy-2-methylpropyl)-1H-pyrazol-4-yl)pyridin-4-yl)pyrazine-2-carboxamide], the IC50 was no more than 10 nM against Chk2 kinase and 10000 to 100000 nM in assay [1] (setting [3]).
Molecule `CC(C)(O)Cn1cc(-c2cc(-c3cnc(N)c(C(=O)N[C@@H]4CNC[C@@H](F)C4)n3)ccn2)cn1` [Example 34, 3-amino-N-((3S,5S)-5-fluoropiperidin-3-yl)-6-(2-(1-(2-hydroxy-2-methylpropyl)-1H-pyrazol-4-yl)pyridin-4-yl)pyrazine-2-carboxamide] gave a half-inhibitory concentration (IC50) against Chk1 kinase of 10 to 100 nM.
For `Nc1ncc(-c2cc(-c3cnn(CC(F)(F)F)c3)ncc2F)nc1C(=O)N[C@H]1CCCNC1` [Example 1, (S)-3-amino-6-(5-fluoro-2-(1-(2,2,2-trifluoroethyl)-1H-pyrazol-4-yl)pyridin-4-yl)-N-(piperidin-3-yl) pyrazine-2-carboxamide], the values for the IC50 (against Chk2 kinase; in assay [1] (setting [2])) were 10 to 100 nM and 10000 to 100000 nM, respectively.
Consider `Nc1ncc(-c2cc(-c3cnn(CC(F)(F)F)c3)ccc2F)nc1C(=O)N[C@@H]1CNC[C@H]1O` [Example 11, 3-amino-6-(2-fluoro-5-(1-(2,2,2-trifluoroethyl)-1H-pyrazol-4-yl)phenyl)-N-((3R,4R)-4-hydroxypyrrolidin-3-yl) pyrazine-2-carboxamide], for which the IC50 against Chk2 kinase fell in the range of 10 to 100 nM; in assay [1] (setting [2]), 10000 to 100000 nM.
Take `Nc1ncc(-c2cc(-c3cnn(CC(F)(F)F)c3)ccc2F)nc1C(=O)N[C@H]1CCC2(CC2)NC1` [Example 8, (S)-3-amino-6-(2-fluoro-5-(1-(2,2,2-trifluoroethyl)-1H-pyrazol-4-yl)phenyl)-N-(4-azaspiro[2.5]octan-6-yl)pyrazine-2-carboxamide]: the half-maximal inhibitory concentration (IC50) on Chk2 kinase is 10 to 100 nM; in assay [1] (setting [2]), 10000 to 100000 nM.
As to `CC1(C)Cc2c(-c3cccc(-c4cnc(N)c(C(=O)N[C@H]5CNC[C@@H]5F)n4)c3)cnn2C1` [Example 62, 3-amino-6-(3-(5,5-dimethyl-5,6-dihydro-4H-pyrrolo[1,2-b]pyrazol-3-yl)phenyl)-N-((3S,4S)-4-fluoropyrrolidin-3-yl) pyrazine-2-carboxamide], the half-inhibitory concentration (IC50) against Chk2 kinase was 10 to 100 nM; in assay [1] (setting [2]) it was 10000 to 100000 nM.
Turning to `Nc1ncc(-c2ccnc(-c3cnn(CC(F)(F)F)c3)c2)nc1C(=O)N[C@@H]1CNCC(F)(F)C1` [Example 13, (S)-3-amino-N-(5,5-difluoropiperidin-3-yl)-6-(2-(1-(2,2,2-trifluoroethyl)-1H-pyrazol-4-yl)pyridin-4-yl)pyrazine-2-carboxamide], the 50% inhibitory concentration (IC50) on Chk2 kinase was 100 to 1000 nM; in assay [1] (Homo sapiens, MCF7, 72 h, alone, read-out: Administered alone (IC50)), 8590 nM; in assay [1] (setting [2]), no more than 10000 nM; in assay [1] (combination with cisplatin, read-out: Administered in combination with cisplatin (IC50)), 2930 nM; in assay [1] (combination with doxorubicin, read-out: Administered in combination with doxorubicin (IC50)), 910 nM.
